# Source: paper PMC10707982, “Solubility and Thermodynamics Data of Cabozantinib Malate in Various Aqueous Solutions of Dimethyl Sulfoxide at Different Temperatures” (Molecules, 2023)
# Assay: Activity coefficients (γi = xidl/xe) of CBZM
# Assay type: physicochemical
# Source text: The data for Tfus, ΔHfus, and ΔCp for CBZM were collected from Ref. [20], and they are 462.72 K, 56.93 kJ mol^−1, and 123.03 J mol^−1 K^−1, respectively. Now, Equation (2) was used to determine the xidl values for CBZM. The γi values for CBZM in all cosolvent combinations and pure solvents were obtained using Equation (3):(3) γi=xidl/xe
smiles,measurement,setting,value
"COc1cc2nccc(Oc3ccc(NC(=O)C4(C(=O)Nc5ccc(F)cc5)CC4)cc3)c2cc1OC [CBZM, Cabozantinib malate]",Activity coefficient (γi),"DMSO mass fraction m = 0.0, T = 298.2 K",6703
same,Activity coefficient (γi),"DMSO mass fraction m = 0.0, T = 303.2 K",5689
same,Activity coefficient (γi),"DMSO mass fraction m = 0.0, T = 308.2 K",5044
same,Activity coefficient (γi),"DMSO mass fraction m = 0.0, T = 313.2 K",4739
same,Activity coefficient (γi),"DMSO mass fraction m = 0.0, T = 318.2 K",4597
same,Activity coefficient (γi),"DMSO mass fraction m = 0.1, T = 298.2 K",2011
same,Activity coefficient (γi),"DMSO mass fraction m = 0.1, T = 303.2 K",1712
same,Activity coefficient (γi),"DMSO mass fraction m = 0.1, T = 308.2 K",1608
same,Activity coefficient (γi),"DMSO mass fraction m = 0.1, T = 313.2 K",1542
same,Activity coefficient (γi),"DMSO mass fraction m = 0.1, T = 318.2 K",1538
same,Activity coefficient (γi),"DMSO mass fraction m = 0.2, T = 298.2 K",605.5
same,Activity coefficient (γi),"DMSO mass fraction m = 0.2, T = 303.2 K",550.8
same,Activity coefficient (γi),"DMSO mass fraction m = 0.2, T = 308.2 K",521.3
same,Activity coefficient (γi),"DMSO mass fraction m = 0.2, T = 313.2 K",517.5
same,Activity coefficient (γi),"DMSO mass fraction m = 0.2, T = 318.2 K",518.0
same,Activity coefficient (γi),"DMSO mass fraction m = 0.3, T = 298.2 K",187.7
same,Activity coefficient (γi),"DMSO mass fraction m = 0.3, T = 303.2 K",173.5
same,Activity coefficient (γi),"DMSO mass fraction m = 0.3, T = 308.2 K",167.9
same,Activity coefficient (γi),"DMSO mass fraction m = 0.3, T = 313.2 K",169.7
same,Activity coefficient (γi),"DMSO mass fraction m = 0.3, T = 318.2 K",174.4
same,Activity coefficient (γi),"DMSO mass fraction m = 0.4, T = 298.2 K",56.40
same,Activity coefficient (γi),"DMSO mass fraction m = 0.4, T = 303.2 K",55.14
same,Activity coefficient (γi),"DMSO mass fraction m = 0.4, T = 308.2 K",55.29
same,Activity coefficient (γi),"DMSO mass fraction m = 0.4, T = 313.2 K",56.55
same,Activity coefficient (γi),"DMSO mass fraction m = 0.4, T = 318.2 K",59.49
same,Activity coefficient (γi),"DMSO mass fraction m = 0.5, T = 298.2 K",17.42
same,Activity coefficient (γi),"DMSO mass fraction m = 0.5, T = 303.2 K",17.07
same,Activity coefficient (γi),"DMSO mass fraction m = 0.5, T = 308.2 K",17.69
same,Activity coefficient (γi),"DMSO mass fraction m = 0.5, T = 313.2 K",18.40
same,Activity coefficient (γi),"DMSO mass fraction m = 0.5, T = 318.2 K",19.80
same,Activity coefficient (γi),"DMSO mass fraction m = 0.6, T = 298.2 K",5.281
same,Activity coefficient (γi),"DMSO mass fraction m = 0.6, T = 303.2 K",5.524
same,Activity coefficient (γi),"DMSO mass fraction m = 0.6, T = 308.2 K",5.800
same,Activity coefficient (γi),"DMSO mass fraction m = 0.6, T = 313.2 K",6.266
same,Activity coefficient (γi),"DMSO mass fraction m = 0.6, T = 318.2 K",6.776
same,Activity coefficient (γi),"DMSO mass fraction m = 0.7, T = 298.2 K",1.609
same,Activity coefficient (γi),"DMSO mass fraction m = 0.7, T = 303.2 K",1.699
same,Activity coefficient (γi),"DMSO mass fraction m = 0.7, T = 308.2 K",1.853
same,Activity coefficient (γi),"DMSO mass fraction m = 0.7, T = 313.2 K",2.023
same,Activity coefficient (γi),"DMSO mass fraction m = 0.7, T = 318.2 K",2.267
same,Activity coefficient (γi),"DMSO mass fraction m = 0.8, T = 298.2 K",0.4851
same,Activity coefficient (γi),"DMSO mass fraction m = 0.8, T = 303.2 K",0.5430
same,Activity coefficient (γi),"DMSO mass fraction m = 0.8, T = 308.2 K",0.6120
same,Activity coefficient (γi),"DMSO mass fraction m = 0.8, T = 313.2 K",0.6808
same,Activity coefficient (γi),"DMSO mass fraction m = 0.8, T = 318.2 K",0.7771
same,Activity coefficient (γi),"DMSO mass fraction m = 0.9, T = 298.2 K",0.1392
same,Activity coefficient (γi),"DMSO mass fraction m = 0.9, T = 303.2 K",0.1658
same,Activity coefficient (γi),"DMSO mass fraction m = 0.9, T = 308.2 K",0.1932
same,Activity coefficient (γi),"DMSO mass fraction m = 0.9, T = 313.2 K",0.2245
same,Activity coefficient (γi),"DMSO mass fraction m = 0.9, T = 318.2 K",0.2572
same,Activity coefficient (γi),"DMSO mass fraction m = 1.0, T = 298.2 K",0.0455
same,Activity coefficient (γi),"DMSO mass fraction m = 1.0, T = 303.2 K",0.0547
same,Activity coefficient (γi),"DMSO mass fraction m = 1.0, T = 308.2 K",0.0646
same,Activity coefficient (γi),"DMSO mass fraction m = 1.0, T = 313.2 K",0.0771
same,Activity coefficient (γi),"DMSO mass fraction m = 1.0, T = 318.2 K",0.0894
